Source: ChEMBL document CHEMBL5096222, “Discovery of a Trifluoromethoxy Cyclopentanone Benzothiazole Receptor-Interacting Protein Kinase 1 Inhibitor as the Treatment for Alzheimer's Disease” (J Med Chem, 2022)

Legend:
[1] = Cytotoxicity against human HT-29 cells assessed as reduction in cell viability by celltiter-glo luminescent cell viability assay; format: toxicity, cell-based
[2] = target: Receptor-interacting serine/threonine-protein kinase 3 (Homo sapiens, UniProt Q9Y572); assay: Binding affinity to recombinant human wild type partial length RIPK3 (M1 to Q307 residues) expressed in bacterial expression system by KINOMEscan TM assay
HT-29 = assay: Anti-necroptotic activity in TSZ induced human HT-29 cells assessed as increase in cell viability pretreated with compound followed by TSZ stimulation and measured after 16 hrs by celltiter-glo luminescent cell viability assay; format: functional, cell-based
[3] = target: T1, Receptor-interacting serine/threonine-protein kinase 1 (Homo sapiens, UniProt Q13546); assay: Binding affinity to recombinant human wild type partial length RIPK1 (M1 to K305 residues) expressed in bacterial expression system by KINOMEscan TM assay
T1 sequence (Q13546 whole entry): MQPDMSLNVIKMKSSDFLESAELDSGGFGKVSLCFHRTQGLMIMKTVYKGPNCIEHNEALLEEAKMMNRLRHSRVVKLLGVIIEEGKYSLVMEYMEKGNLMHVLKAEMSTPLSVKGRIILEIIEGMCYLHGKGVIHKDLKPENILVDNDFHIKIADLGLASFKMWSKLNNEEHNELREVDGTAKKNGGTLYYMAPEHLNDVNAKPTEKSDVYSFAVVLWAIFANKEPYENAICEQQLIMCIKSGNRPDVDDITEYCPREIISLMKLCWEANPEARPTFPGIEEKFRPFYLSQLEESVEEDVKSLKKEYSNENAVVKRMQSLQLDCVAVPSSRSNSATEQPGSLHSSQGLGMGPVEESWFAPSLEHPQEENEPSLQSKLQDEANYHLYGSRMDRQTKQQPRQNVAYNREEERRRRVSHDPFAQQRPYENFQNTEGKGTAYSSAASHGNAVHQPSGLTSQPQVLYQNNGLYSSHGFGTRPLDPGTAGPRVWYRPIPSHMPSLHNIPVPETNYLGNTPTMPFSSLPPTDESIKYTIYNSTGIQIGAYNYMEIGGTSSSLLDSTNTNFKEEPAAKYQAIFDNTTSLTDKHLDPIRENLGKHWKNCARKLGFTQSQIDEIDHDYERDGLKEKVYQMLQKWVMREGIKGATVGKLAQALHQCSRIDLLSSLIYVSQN

Receptor-interacting serine/threonine-protein kinase 3, sequence (Q9Y572 whole entry, the tested form may be a part): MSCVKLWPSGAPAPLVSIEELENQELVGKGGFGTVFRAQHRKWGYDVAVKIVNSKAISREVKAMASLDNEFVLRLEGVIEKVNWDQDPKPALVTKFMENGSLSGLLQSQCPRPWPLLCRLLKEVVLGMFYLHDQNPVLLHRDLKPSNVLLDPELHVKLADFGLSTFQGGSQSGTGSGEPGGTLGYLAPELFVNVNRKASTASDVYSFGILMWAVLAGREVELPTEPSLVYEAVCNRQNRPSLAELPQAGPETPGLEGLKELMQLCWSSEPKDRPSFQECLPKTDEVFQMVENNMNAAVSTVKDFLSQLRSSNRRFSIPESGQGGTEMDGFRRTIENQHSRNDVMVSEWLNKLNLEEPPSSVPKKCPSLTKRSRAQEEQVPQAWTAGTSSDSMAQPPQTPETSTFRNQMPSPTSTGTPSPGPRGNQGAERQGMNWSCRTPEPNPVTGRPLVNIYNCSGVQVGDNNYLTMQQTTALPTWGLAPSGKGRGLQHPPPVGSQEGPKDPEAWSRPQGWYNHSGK

Kd [2] [nM] | Kd [3] [nM] | SMILES | CC50 [1] [nM] | EC50 (HT-29) [nM]
– | – | CN1C(=O)[C@@H](NC(=O)c2nnc(Cc3ccccc3)[nH]2)COc2ccccc21 [GSK2982772] | > 50000 | –
120 | 49 | O=C(Cc1cccc(OC(F)(F)F)c1)Nc1cc(Oc2cc3nc(NC(=O)C4CC4)sc3cc2F)ccc1F | > 50000 | 82
> 5000 | 9.6 | O=C1CCC(C(=O)Nc2nc3cc(Oc4ccc(F)c(NC(=O)Cc5cccc(OC(F)(F)F)c5)c4)c(F)cc3s2)C1 (centres undefined) | > 50000 | 8
